PMC10795023, “Structural Optimization and Biological Evaluation of Isoxazolo[5,4-d]pyrimidines as Selective Toll-Like Receptor 7 Agonists” (ACS Omega, 2024)
“Also recorded” adds a separate entry of the source.

What was measured:
[1] = biological target: T1, hTLR7 (Homo sapiens, UniProt Q9NYK1); assay: TLR7 agonist activity, HEK293 hTLR7 SEAP reporter assay; type: cell-based; settings: HEK293 cotransfected with hTLR7 and inducible SEAP reporter gene, 24 h treatment; average ± SD of three independent replicates; n.a. = not active; read-out: EC50
T1 construct: host or cells: HEK293
T1 sequence (Q9NYK1 27-1049): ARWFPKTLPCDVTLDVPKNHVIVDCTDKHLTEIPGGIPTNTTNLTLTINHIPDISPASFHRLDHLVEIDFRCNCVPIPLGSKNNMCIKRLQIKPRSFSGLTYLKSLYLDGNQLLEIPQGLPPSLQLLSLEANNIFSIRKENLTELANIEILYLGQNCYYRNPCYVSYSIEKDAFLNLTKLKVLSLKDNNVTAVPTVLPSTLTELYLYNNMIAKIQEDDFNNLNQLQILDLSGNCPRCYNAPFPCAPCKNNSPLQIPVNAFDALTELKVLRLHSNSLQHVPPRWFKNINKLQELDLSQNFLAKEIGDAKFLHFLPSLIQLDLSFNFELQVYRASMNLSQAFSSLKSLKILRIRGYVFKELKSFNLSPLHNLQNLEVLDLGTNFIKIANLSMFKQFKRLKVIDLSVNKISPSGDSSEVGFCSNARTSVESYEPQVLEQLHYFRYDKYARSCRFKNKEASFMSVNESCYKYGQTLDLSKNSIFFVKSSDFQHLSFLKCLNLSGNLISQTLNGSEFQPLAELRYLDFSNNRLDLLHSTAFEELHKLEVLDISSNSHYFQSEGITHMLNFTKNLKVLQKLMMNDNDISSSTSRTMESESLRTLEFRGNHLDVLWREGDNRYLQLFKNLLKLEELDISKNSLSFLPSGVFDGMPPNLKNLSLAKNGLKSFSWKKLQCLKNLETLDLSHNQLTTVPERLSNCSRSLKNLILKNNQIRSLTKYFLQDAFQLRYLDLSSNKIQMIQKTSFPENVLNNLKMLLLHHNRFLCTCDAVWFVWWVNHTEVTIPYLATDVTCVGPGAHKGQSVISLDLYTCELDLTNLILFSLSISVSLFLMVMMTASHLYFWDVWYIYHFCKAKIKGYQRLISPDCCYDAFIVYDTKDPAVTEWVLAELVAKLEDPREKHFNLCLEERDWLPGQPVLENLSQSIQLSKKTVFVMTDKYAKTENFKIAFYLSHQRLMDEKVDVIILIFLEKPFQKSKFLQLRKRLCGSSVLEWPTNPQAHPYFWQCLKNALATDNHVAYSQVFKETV
Protocol: TLR7 agonist activities were determined using the HEK293 cell line, which was cotransfected with the hTLR7 gene and an inducible SEAP reporter gene (InvivoGen, San Diego, California, USA) as described previously.[34] Briefly, cells were seeded in 96-well plates (3 × 10^4 cells/well) and incubated at 5% CO2 and 37 °C. After 24 h, the cells were treated with the solutions of the compounds in DMSO. Imiquimod was used as a PC. The cells were incubated again for 24 h under the same conditions. The activity of SEAP in the supernatant of the cells was measured using the QUANTI-Blue reagent (InvivoGen, San Diego, California, USA), according to the manufacturer's protocol. EC50 values were determined using GraphPad Prism 9.2.0. software (San Diego, California, USA) using the nonlinear regression curve fit and four-parameter logistic equation. All experiments were performed in three independent biological replicates. Values are given as averages from the independent measurements with standard deviations calculated.

[2] = tested on: HEK293 cell line cotransfected with the hTLR7 gene; assay: Cytotoxicity, MTS cell proliferation assay; type: cell-based, human; settings: 24 h
Protocol: The cytotoxicity of the compounds was determined by the MTS assay at concentrations of 150, 50, and 10 μM on the HEK293 cell line cotransfected with the hTLR7 gene (Figure 3).
The cytotoxicity of the compounds was determined using the MTS cell proliferation assay (CellTiter 96 AQueous One Solution Cell Proliferation Assay, Promega, Wisconsin, USA), according to the manufacturer's protocol on the HEK293 cell line, cotransfected with the hTLR7 gene (InVivoGen). Cells were seeded in 96-well plates (1.5 × 10^4 cells/well). After 24 h incubation at 5% CO2 and 37 °C, the cells were treated either with DMSO (negative control) or with solutions of the tested compounds in DMSO. After 24 h, MTS reagent (CellTiter 96 AQueous One Solution Cell Proliferation Assay, Promega, Wisconsin, USA) was added. Cells were incubated for another 2 h, and then absorbance was measured at 490 nm.

[3] = tested on: human peripheral blood mononuclear cells (PBMCs); assay: Cytokine secretion in PBMCs, cytometric bead array; type: cell-based; settings: 24 h; for IL-6 concentration / IL-8 secretion / IL-10 concentration / IL-12p70 secretion / TNF-α secretion / IL-1β secretion: 21a 62.5 and 12.5 μM, 24a 125 and 25 μM
Protocol: PBMCs were seeded on a 24-well plate and treated with compounds 21a (62.5 μM (21a (1)) and 12.5 μM (21a (2))) and 24a (125 μM (24a (1)) and 25 μM (24a (2))). For a positive control (PC), imiquimod (1) was used (final concentration is 10 μg/mL) and the negative control were cells treated with DMSO. […] The BD Human Cytometric Bead Array (BD Biosciences, California, USA) was used to assay the protein levels of IL-1β, IL-6, IL-8, IL-10, IL-12p70, and TNF-α in the cell culture supernatant, according to the manufacturer’s protocol (BD Biosciences). PBMCs were isolated from buffy coats obtained at the Blood Transfusion Centre of Slovenia. Cells were seeded into 24-well plates (5 × 10^5 cells/well in […] of RPMI medium, Sigma-Aldrich, St. Louis, Missouri, USA) and treated with the selected TLR7 agonist. For a PC, imiquimod was used (final concentration is 10 μg/mL) and the negative control were cells treated with DMSO. Cells were centrifuged after 24 h incubation at 5% CO2 and 37 °C, and cell culture supernatants were used for further analysis. In an assay tube, […] of the Capture Beads, […] of the Detection Reagent, and […] of sample (fivefold dilution) were mixed and incubated for 3 h at room temperature and protected from light. Samples were then washed with 1 mL of wash buffer and centrifuged at 200g for 5 min. The supernatant was carefully aspirated and discarded from each assay tube. The bead pellet was resuspended by adding […] of wash buffer. Flow cytometry was performed using a FACSCalibur system (Becton Dickinson, Inc., New Jersey, USA). A standard curve was prepared by serial dilutions of standards and used for determination of cytokine concentrations in supernatants.

Compound	EC50 [1]	cytotoxicity (cell viability) ([2]; 150, 50 and 10 μM)	IL-6 concentration [3]	IL-8 secretion [3]	IL-10 concentration [3]	IL-12p70 secretion [3]	TNF-α secretion [3]	IL-1β secretion ([3]; imiquimod 10 μg/mL)	induction of TNF-α secretion in comparison to 1 (imiquimod) ([3]; 21a at 62.5 μM, imiquimod 10 μg/mL)	cytotoxicity (cell viability) ([2]; 150 μM)
CC1CCCN(c2nc(C(F)(F)F)nc3onc(-c4ccc(F)cc4)c23)C1 (stereo not drawn) [Compound 21a, 3-(4-Fluorophenyl)-4-(3-methylpiperidin-1-yl)-6-(trifluoromethyl)isoxazolo[5,4-d]pyrimidine]	7.8 ± 0.1 µM	noncytotoxic; also recorded: no cytotoxic effects	did not increase significantly	induced the secretion	did not increase significantly	induced the secretion	induced the secretion	induced the secretion	higher induction	–
CC(C)Cn1cnc2c(N)nc3ccccc3c21 [imiquimod, reference compound]	–	–	–	–	–	–	–	stimulated the release	–	–
CC(C)CNc1nc(C(F)(F)F)nc2onc(C3CCNCC3)c12.Cl [Compound 25b, 4-(4-(Isobutylamino)-6-(trifluoromethyl)isoxazolo[5,4-d]pyrimidin-3-yl)piperidin-1-ium chloride]	–	–	–	–	–	–	–	–	–	highly cytotoxic
CC1CCCN(c2nc(C(F)(F)F)nc3onc(C4CCNCC4)c23)C1.Cl (stereo not drawn) [Compound 25a, 4-(4-(3-Methylpiperidin-1-yl)-6-(trifluoromethyl)isoxazolo[5,4-d]pyrimidin-3-yl)piperidin-1-ium chloride]	–	–	–	–	–	–	–	–	–	highly cytotoxic
Cl.Fc1ccc(-c2noc3nc(C(F)(F)F)nc(N4CCNCC4)c23)cc1 [Compound 21i, 4-(3-(4-Fluorophenyl)-6-(trifluoromethyl)isoxazolo[5,4-d]pyrimidin-4-yl)piperazin-1-ium chloride]	–	cytotoxic	–	–	–	–	–	–	–	highly cytotoxic
CC1CCCN(c2nc(C(F)(F)F)nc3onc(C4CC4)c23)C1 (stereo not drawn) [Compound 24a, 3-Cyclopropyl-4-(3-methylpiperidin-1-yl)-6-(trifluoromethyl)isoxazolo[5,4-d]pyrimidine]	25.3 ± 3.5 µM	–	did not increase significantly	induced the secretion	did not increase significantly	induced the secretion	induced the secretion	induced the secretion	–	–
